Experimental data published in PubChem BioAssay (NCI).
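Following 48 hours of exposure in 96-well plates, responses at five concentrations were used to interpolate endpoints linearly. GI50 is the concentration that inhibits growth by half. TGI is the concentration that stops growth completely.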

How the values were obtained:
Experiment in all cases: inhibition of tumour cell growth, NCI panel, 48 h; in the data active = GI50 below about 0.43 µM; inactive = the rest
[1] = test system: 786-0 renal
[2] = test system: A498 renal
[3] = test system: A549 NSCLC
[4] = test system: ACHN renal
[5] = test system: BT-549 breast
[6] = test system: CAKI-1 renal
[7] = test system: CCRF-CEM leukemia
[8] = test system: COLO 205 colon
[9] = test system: DU-145 prostate
[10] = test system: EKVX NSCLC
[11] = test system: HCC-2998 colon
[12] = test system: HCT-116 colon
[13] = test system: HCT-15 colon
[14] = test system: HL-60(TB) leukemia
[15] = test system: HOP-62 NSCLC
[16] = test system: HOP-92 NSCLC
[17] = test system: HS 578T breast
[18] = test system: HT29 colon
[19] = test system: IGROV1 ovarian
[20] = test system: K-562 leukemia
[21] = test system: KM12 colon
[22] = test system: LOX IMVI melanoma
[23] = test system: M14 melanoma
[24] = test system: MALME-3M melanoma
[25] = test system: MDA-MB-231 breast
[26] = test system: MDA-MB-435
[27] = test system: MOLT-4 leukemia
[28] = test system: NCI-H226 lung
[29] = test system: NCI-H23 lung
[30] = test system: NCI-H460 lung
[31] = test system: NCI-H522 lung
[32] = test system: NCI/ADR-RES ovarian
[33] = test system: OVCAR-3 ovarian
[34] = test system: OVCAR-4 ovarian
[35] = test system: OVCAR-5 ovarian
[36] = test system: OVCAR-8 ovarian
[37] = test system: PC-3 prostate
[38] = test system: RPMI-8226 leukemia
[39] = test system: RXF 393 renal
[40] = test system: SF-268 CNS
[41] = test system: SF-539 CNS
[42] = test system: SK-MEL-2 melanoma
[43] = test system: SK-MEL-28 melanoma
[44] = test system: SK-MEL-5 melanoma
[45] = test system: SN12C renal
[46] = test system: SNB-19 CNS
[47] = test system: SNB-75 CNS
[48] = test system: SR leukemia
[49] = test system: SW-620 colon
[50] = test system: T-47D breast
[51] = test system: TK-10 renal
[52] = test system: U251 CNS
[53] = test system: UACC-257 melanoma
[54] = test system: UACC-62 melanoma
[55] = test system: UO-31 renal
[56] = test system: MCF7 breast
[57] = test system: SF-295 CNS
[58] = test system: SK-OV-3 ovarian

CCc1c2c(nc3ccc(OCc4ccc(B5OC(C)(C)C(C)(C)O5)cc4)cc13)-c1cc3c(c(=O)n1C2)COC(=O)[C@]3(O)CC
inactive: GI50 [10] 0.431 µM | GI50 [17] 1.11 µM | GI50 [25] 1.1 µM | GI50 [42] 0.825 µM | GI50 [43] 0.604 µM | GI50 [51] 1.83 µM
1.22 µM: TGI [6]
0.355 µM: TGI [22]
0.296 µM: TGI [47]
0.963 µM: TGI [16]
> 49.8 µM: TGI [9]
1.26 µM: TGI [53]
> 100 µM: TGI [3] | TGI [5] | TGI [7] | TGI [8] | TGI [10] | TGI [11] | TGI [12] | TGI [13] | TGI [17] | TGI [18] | TGI [19] | TGI [20] | TGI [25] | TGI [26] | TGI [27] | TGI [31] | TGI [32] | TGI [33] | TGI [34] | TGI [35] | TGI [36] | TGI [37] | TGI [38] | TGI [40] | TGI [43] | TGI [45] | TGI [46] | TGI [48] | TGI [49] | TGI [50] | TGI [51]
0.454 µM: TGI [28]
0.219 µM: TGI [29]
1.02 µM: TGI [55]
1.24 µM: TGI [30]
0.185 µM: TGI [39]
0.338 µM: TGI [44]
1.62 µM: TGI [21]
active: GI50 [1] 0.02 µM | GI50 [2] 0.0406 µM | GI50 [3] 0.06 µM | GI50 [4] 0.0278 µM | GI50 [5] 0.0757 µM | GI50 [6] 0.0162 µM | GI50 [7] < 0.01 µM | GI50 [8] 0.126 µM | GI50 [9] 0.0223 µM | GI50 [11] 0.185 µM | GI50 [12] 0.0169 µM | GI50 [13] 0.331 µM | GI50 [14] 0.0291 µM | GI50 [15] < 0.01 µM | GI50 [16] 0.0378 µM | GI50 [18] 0.115 µM | GI50 [19] 0.134 µM | GI50 [20] 0.0562 µM | GI50 [21] 0.137 µM | GI50 [22] < 0.01 µM | GI50 [23] 0.0141 µM | GI50 [24] 0.134 µM | GI50 [26] 0.101 µM | GI50 [27] < 0.01 µM | GI50 [28] 0.0214 µM | GI50 [29] 0.0248 µM | GI50 [30] 0.0125 µM | GI50 [31] 0.0204 µM | GI50 [32] 0.0622 µM | GI50 [33] 0.215 µM | GI50 [34] 0.192 µM | GI50 [35] 0.215 µM | GI50 [36] 0.0296 µM | GI50 [37] 0.146 µM | GI50 [38] 0.312 µM | GI50 [39] 0.027 µM | GI50 [40] < 0.01 µM | GI50 [41] < 0.0109 µM | GI50 [44] 0.0372 µM | GI50 [45] < 0.01 µM | GI50 [46] < 0.01 µM | GI50 [47] 0.0183 µM | GI50 [48] < 0.01 µM | GI50 [49] 0.0258 µM | GI50 [50] < 0.01 µM | GI50 [52] < 0.01 µM | GI50 [53] 0.0477 µM | GI50 [54] < 0.01 µM | GI50 [55] 0.0326 µM
> 24.6 µM: TGI [42]
0.186 µM: TGI [54]
0.0691 µM: TGI [1]
2.07 µM: TGI [4]
3.07 µM: TGI [24]
0.376 µM: TGI [2]
0.131 µM: TGI [41]

COc1ccc(CN=C(N)N=C(N)N)cc1OC
inactive: GI50 [1] > 1000 µM | GI50 [2] 151 µM | GI50 [3] 404 µM | GI50 [4] > 1000 µM | GI50 [5] 260 µM | GI50 [6] > 1000 µM | GI50 [8] > 1000 µM | GI50 [9] > 1000 µM | GI50 [10] 40.1 µM | GI50 [11] > 1000 µM | GI50 [12] > 1000 µM | GI50 [13] > 1000 µM | GI50 [14] 706 µM | GI50 [15] 602 µM | GI50 [17] > 1000 µM | GI50 [18] > 1000 µM | GI50 [19] > 1000 µM | GI50 [20] 362 µM | GI50 [21] > 1000 µM | GI50 [22] > 1000 µM | GI50 [23] > 1000 µM | GI50 [24] 365 µM | GI50 [56] 855 µM | GI50 [25] > 1000 µM | GI50 [26] > 1000 µM | GI50 [27] > 1000 µM | GI50 [28] 619 µM | GI50 [29] 522 µM | GI50 [30] > 1000 µM | GI50 [31] 714 µM | GI50 [32] > 1000 µM | GI50 [33] 612 µM | GI50 [34] 215 µM | GI50 [35] > 1000 µM | GI50 [36] 444 µM | GI50 [39] > 1000 µM | GI50 [40] 472 µM | GI50 [57] 194 µM | GI50 [41] > 1000 µM | GI50 [42] 859 µM | GI50 [43] 960 µM | GI50 [44] 223 µM | GI50 [58] > 1000 µM | GI50 [45] 358 µM | GI50 [46] 482 µM | GI50 [47] 192 µM | GI50 [49] > 1000 µM | GI50 [50] 907 µM | GI50 [51] > 1000 µM | GI50 [52] 398 µM | GI50 [53] 448 µM | GI50 [54] 558 µM | GI50 [55] > 1000 µM
> 1000 µM: TGI [1] | TGI [2] | TGI [3] | TGI [4] | TGI [5] | TGI [6] | TGI [8] | TGI [9] | TGI [10] | TGI [11] | TGI [12] | TGI [13] | TGI [14] | TGI [15] | TGI [17] | TGI [18] | TGI [19] | TGI [20] | TGI [21] | TGI [22] | TGI [23] | TGI [24] | TGI [56] | TGI [25] | TGI [26] | TGI [27] | TGI [28] | TGI [29] | TGI [30] | TGI [31] | TGI [32] | TGI [33] | TGI [34] | TGI [35] | TGI [36] | TGI [39] | TGI [40] | TGI [57] | TGI [41] | TGI [42] | TGI [43] | TGI [44] | TGI [58] | TGI [45] | TGI [46] | TGI [47] | TGI [49] | TGI [50] | TGI [51] | TGI [52] | TGI [53] | TGI [54] | TGI [55]
